In the supplement of paper PMC10307832:

Compound: C[C@@]1(C(=O)Nc2ccc(F)nc2)CCCN1c1nc(Nc2cc(C3CC3)n[nH]2)c2cccn2n1 + Nc1ncn([C@H]2C[C@H](O)[C@@H](CO)O2)c(=O)n1 [Decitabine] (partner 2 µM)
Assay: relative viability (nuclei count vs DMSO), 5 days (fraction); higher = more cells survive
Conditions: first compound 0.04 µM
Procedure, shortened: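 Nuclei were stained with Hoechst during a one-step fixation (final 0.05% Triton X-100, 1% formaldehyde, 1 ug/ml Hoechst) carried out 5 days after dosing, then counted on 4× images. The cells, lung cancer lines in 1536-well plates, had been dosed by pin tool the day after seeding with one drug alone or a fixed anchor-drug dose plus five library-drug doses (not always all listed) in √10 steps. Relative viability is the nuclei count in treated wells divided by that in vehicle wells, and each value is the median of duplicate plates.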

Row | Cell Line | relative viability
1 | NCI-H2170 | 0.43
2 | NCI-H2405 | 0.68
3 | HOP-62 | 0.181
4 | HCC-44 | 0.957
5 | LU99A | 0.764
6 | BEN | 0.702
7 | HARA | 0.445
8 | HCC-78 | 0.624
9 | NCI-H322M | 0.658
10 | LCLC-97TM1 | 0.228
11 | A-427 | 0.514
12 | NCI-H441 | 0.24
13 | NCI-H1734 | 0.456
14 | NCI-H460 | 0.506
15 | NCI-H2347 | 0.571
16 | NCI-H1395 | 0.7
17 | 201T | 0.813
18 | NCI-H1915 | 0.266
19 | HCC-827 | 0.295

Row | Cell Line | relative viability
20 | LXF-289 | 0.361
21 | NCI-H23 | 0.274
22 | NCI-H647 | 0.504
23 | NCI-H1651 | 0.567
24 | EPLC-272H | 0.348
25 | NCI-H1792 | 0.401
26 | NCI-H1355 | 0.388
27 | NCI-H3122 | 0.361
28 | NCI-H1437 | 0.553
29 | NCI-H1755 | 0.698
30 | HCC-15 | 0.48
31 | NCI-H1793 | 0.362
32 | PC-14 | 0.209
33 | EKVX | 0.29
34 | LC-2-ad | 0.82
35 | NCI-H1944 | 0.372
36 | NCI-H1975 | 0.38
37 | RERF-LC-KJ | 0.662

Same assay, conditions: first compound 0.1265 µM

Row | Cell Line | relative viability
38 | NCI-H2170 | 0.489
39 | NCI-H2405 | 0.487
40 | HOP-62 | 0.203
41 | HCC-44 | 0.949
42 | LU99A | 0.585
43 | BEN | 0.583
44 | HARA | 0.436
45 | HCC-78 | 0.564
46 | NCI-H322M | 0.533
47 | LCLC-97TM1 | 0.131
48 | A-427 | 0.413
49 | NCI-H441 | 0.213
50 | NCI-H1734 | 0.389
51 | NCI-H460 | 0.446
52 | NCI-H2347 | 0.574
53 | NCI-H1395 | 0.705
54 | 201T | 0.714
55 | NCI-H1915 | 0.278
56 | HCC-827 | 0.312

Row | Cell Line | relative viability
57 | LXF-289 | 0.385
58 | NCI-H23 | 0.253
59 | NCI-H647 | 0.312
60 | NCI-H1651 | 0.527
61 | EPLC-272H | 0.306
62 | NCI-H1792 | 0.235
63 | NCI-H1355 | 0.313
64 | NCI-H3122 | 0.337
65 | NCI-H1437 | 0.517
66 | NCI-H1755 | 0.687
67 | HCC-15 | 0.375
68 | NCI-H1793 | 0.428
69 | PC-14 | 0.27
70 | EKVX | 0.246
71 | LC-2-ad | 0.73
72 | NCI-H1944 | 0.377
73 | NCI-H1975 | 0.388
74 | RERF-LC-KJ | 0.629

Same assay, conditions: first compound 0.4 µM

Row | Cell Line | relative viability
75 | NCI-H2170 | 0.442
76 | NCI-H2405 | 0.488
77 | HOP-62 | 0.224
78 | HCC-44 | 0.811
